In article PMC10288505, “Photoswitchable Calixarene Activators for Controlled Peptide Transport across Lipid Membranes” (Journal of the American Chemical Society, 2023):
Several values for one entry are separate records, joined by “and”; a condition that tells them apart may be missing. Equal entries are not always repeated. Where two headings read alike, the source gives them in different places.

Columns and labels:
[1] = Fluorescence titration of lucigenin dye with calixarene host (1:1 binding model); conditions: association constant, 1:1 host:guest model, 5 mM phosphate buffer pH 7.3, mean ± SD of triplicate
Description: The binding affinity of the anionic calixarene activators toward cationic peptides was investigated using a small library of highly hydrophilic oligoarginines, from 3 to 8 residues. These peptides are not able to spontaneously transverse zwitterionic artificial membranes in vesicle assays, which allows the accurate evaluation of the calixarenes 1 and 2 as counterion activators without interferences from the transport of the peptide alone.[43]−[45] First, the formation of host–guest complexes between 1/2 and the selected peptides was verified by indicator displacement assays using lucigenin (LCG) as the fluorescent indicator.[46] As previously reported for other sulfonatocalixarene derivatives,[46] the formation of host–guest binding pairs between calixarenes 1/2 in the E- and Z-forms and LCG results in significant static fluorescence quenching (see Figure 2A and Figures S26 and S27). Quantitative analysis of the fluorescence titration data using a 1:1 host:guest binding model allows the determination of the respective binding constants (K) reported in Table 1. As can be observed, both 1/2 display high affinity for the LCG dye, on the 10^7 M^–1 range, which seems to be independent of the nature and conformation of the azobenzene arm. […] The host:LCG binding pairs were then employed in the above-mentioned indicator displacement assays to investigate the binding affinity of oligoarginines toward 1 and 2 (see Figure 2B and Figures S29–S33).
Figure 2 (A) Fluorescence titration of the lucigenin dye (LCG, 1.5 μM) with increasing concentrations of E-2 in water (5 mM phosphate buffer, pH 7.3). (B) Indicator displacement titration of hexaarginine (R6) using E-2:LCG as the reporter pair (5 mM phosphate buffer, pH 7.3). LCG and E-2 concentrations were fixed at 4 and 4.3 μM, respectively. […]
The binding affinities of the counterion activators and peptide complexes were analyzed by indicator displacement assays. […] Firstly, the affinity for LCG was calculated for each of the activators, by titrations followed by fluorescence spectroscopy leading to almost full quenching of the emission. […]
Figure S26 - Fluorescence titration of the lucigenin dye with increasing concentrations of A) E-1 and B) Z–1 in water (5 mM phosphate buffer pH 7.3). […]
Figure S27 - Fluorescence titrations of the lucigenin dye (LCG, 0.2 µM, except for the first E-2 titration were [LCG] = 1.5 µM ) with increasing concentrations of (A) E-2 and (B) Z-2 in water (5 mM phosphate buffer pH 7.3). […]
Figure S28 - Fluorescence titrations of the lucigenin dye (LCG, 0.2 µM) with increasing concentrations of SC4 in water (5 mM phosphate buffer pH 7.3). […]

[2] = Carboxyfluorescein (CF) dye efflux assay, counterion-activated peptide transport; assay type: biochemical; conditions: for TE (transport efficiency), R6 transport / TE (transport efficiency), R8 transport: TE = Ymax × pEC50/f, pEC50 = −log EC50 (in mM), f = 20.6; for TE (transport efficiency), R6 transport: R6 4 μM; for TE (transport efficiency), R6 transport / TE (transport efficiency), R8 transport / Ymax (maximal CF release relative to Triton X-100 lysis), R6 transport / EC50 / Ymax (maximal CF release relative to Triton X-100 lysis), R8 transport: EYPC-LUV⊃CF 15 μM; for TE (transport efficiency), R8 transport: R8 4 μM; for Ymax (maximal CF release relative to Triton X-100 lysis), R6 transport / EC50 / Ymax (maximal CF release relative to Triton X-100 lysis), R8 transport: 5 mM phosphate buffer pH 7.3, Hill fit, triplicate; for EC50 / Activation of CF release in the presence of peptide R4: 50 mM CF inside; for EC50: fluorescence; for Activation of CF release in the presence of peptide R4: R4 5 µM, EYPC-LUV⊃CF 15 µM
Description: Dynamic light scattering (DLS) control experiments also confirmed liposome integrity under the experimental conditions employed in the different membrane transport assays, which ruled out potential membrane disruption interferences (Figure S34). Established dye efflux assays were performed using the carboxyfluorescein (CF) dye encapsulated at self-quenching concentrations in egg phosphatidylcholine large unilamellar vesicles (EYPC-LUV⊃CF).[26],[27],[29],[45] In these experiments, the fractional release of trapped CF (or fractional transport activity, Y), triggered by the addition of counterion activators and peptides, is monitored by time-resolved fluorescence spectroscopy and calibrated by the addition of Triton X-100 (Figure S35).
The studies were performed with both 1 and 2 in the E and Z configurations in the presence of fixed concentrations of liposomes and cationic peptides. […] Likewise, the addition of peptides alone or nonbinding anionic peptides in the presence of calixarene activators also results in unmodified fluorescence signal, confirming that the formation of the calixarene–peptide complex is critical to activate the transport process. […] This approach retrieves the Ymax (i.e., maximal CF release relative to liposome lysis after the addition of Triton X-100) and EC50 (i.e., the effective counterion activator concentration required to reach Ymax/2) as the relevant parameters to measure the efficiency of the counterion activators.
10 mg of L-α-phosphatidylcholine (95%) (Egg, Chicken) were dissolved in 1 ml of chloroform. The solution was evaporated under a nitrogen stream, under rotation, to form a thin lipid film in the bottom of the flask. This film was left to dry under vacuum for a minimum of 1h. After drying the maximum of the solvent from the solution, 1 ml of the solution to incorporate (CF 50 mM in 5 mM phosphate buffer for EYPC-LUV⊃CF and only phosphate buffer 5 mM pH 7.4, for the LUVs with no encapsulation) was added to the thin film and the lipids were left to resuspend under agitation, in a 40 °C bath, for 30 min. The resuspended lipid mixture was then submitted to 10 freeze-thaw cycles and extruded 23 times through a 100 nm membrane, to obtain uniform, monodisperse liposomes with high encapsulation of the added solution. The liposomes were then separated from the molecules that were not encapsulated by size-exclusion chromatography, with Sephadex G25 (V = 37 ml), obtaining two fractions, one with high turbidity and a clear one, corresponding to the encapsulated and free sensor, respectively. The samples were then analyzed by Dynamic Light Scattering (DLS) to determine the average size of the liposomes in solution and their size distribution.
All assays were done up to 48h after the preparation of the vesicles to ensure their integrity and majority of CF still encapsulated.
EC50 and Ymax calculation. For the measurement of 1 and 2’s effectiveness as a counterion activators of polyarginine transport, dye efflux assays were executed at several counterion activator concentrations, while maintaining the concentration of peptide and LUV fixed as indicated in the respective figures.
For the dye efflux assays, CF emission was followed throughout the assay, with consecutive additions of the elements of the solution – the initial solution presented only the vesicles at a fixed concentration. A counterion activator aliquot is then added according to the concentration to be tested and the emission is measured to confirm that CF remains encapsulated; some counterion activators can act as detergents at sufficient concentrations. Finally, the peptide in question is added and fluorescence spectra are measured […]
until the emission stabilizes and a maximum of release is reached. If the counterion activator has the capacity to activate the transport, CF should be co-transported to the exterior of the liposome with the influx of the counterion-peptide complex. Finally, Triton X-100 is added to the solution to dissolve the […]

[3] = peptide R6 4 μM, read-out: EC50 (effective counterion activator concentration to reach Ymax/2), R6 transport
[4] = peptide R8 4 μM, read-out: EC50 (effective counterion activator concentration to reach Ymax/2), R8 transport

Structure (SMILES)	Apparent affinity constant K for LCG [1]	TE (transport efficiency), R6 transport [2]	TE (transport efficiency), R8 transport [2]	Ymax (maximal CF release relative to Triton X-100 lysis), R6 transport ([2]; peptide R6 4 μM)	EC50 [2, 3] [nM]	Ymax (maximal CF release relative to Triton X-100 lysis), R8 transport ([2]; peptide R8 4 μM) [%]	EC50 [2, 4] [nM]	Activation of CF release in the presence of peptide R4 [2]
O=S(=O)([O-])c1cc2c(O)c(c1)Cc1cc(S(=O)(=O)[O-])cc(c1O)Cc1cc(S(=O)(=O)[O-])cc(c1OCCCCCCOc1ccc(/N=N/c3ccccc3)cc1)Cc1cc(S(=O)(=O)[O-])cc(c1O)C2.[Li+].[Li+].[Li+].[Li+] [E-1]	(2.5 ± 0.7) × 10^7 M^–1	19.4 ± 0.2	20.3 ± 0.4	96% and 96 ± 1%	72 ± 5	91 ± 2	24 ± 2	–
CCCCc1ccc(/N=N/c2ccc(OCCCOc3c4cc(S(=O)(=O)[O-])cc3Cc3cc(S(=O)(=O)[O-])cc(c3O)Cc3cc(S(=O)(=O)[O-])cc(c3O)Cc3cc(S(=O)(=O)[O-])cc(c3O)C4)cc2)cc1.[Li+].[Li+].[Li+].[Li+] [E-2]	(2.6 ± 0.7) × 10^7 M^–1	20.2 ± 0.2	22.2 ± 0.3	96% and 96 ± 1%	45 ± 2	93 ± 2	11 ± 1	–
O=S(=O)([O-])c1cc2c(O)c(c1)Cc1cc(S(=O)(=O)[O-])cc(c1O)Cc1cc(S(=O)(=O)[O-])cc(c1OCCCCCCOc1ccc(/N=N\c3ccccc3)cc1)Cc1cc(S(=O)(=O)[O-])cc(c1O)C2.[Li+].[Li+].[Li+].[Li+] [Z-1]	(2.3 ± 0.4) × 10^7 M^–1	10.8 ± 0.8	13.3 ± 0.4	63% and 63 ± 5%	291 ± 32	69 ± 2	99 ± 3	no activation was observed
CCCCc1ccc(/N=N\c2ccc(OCCCOc3c4cc(S(=O)(=O)[O-])cc3Cc3cc(S(=O)(=O)[O-])cc(c3O)Cc3cc(S(=O)(=O)[O-])cc(c3O)Cc3cc(S(=O)(=O)[O-])cc(c3O)C4)cc2)cc1.[Li+].[Li+].[Li+].[Li+] [Z-2]	(3.4 ± 0.8) × 10^7 M^–1	16.6 ± 0.3	20.8 ± 0.4	94% and 94 ± 2%	227 ± 17	94 ± 2	30 ± 4	no activation was observed
